Test results taken from US12686692B2, “KRas G12D inhibitors” (Mirati Therapeutics, Inc., priority 2020, dated 2026).

Tests used:
[1] = tested on: KRas G12D-mediated Phosphorylation of ERK; test: Inhibition of KRas G12D-mediated Phosphorylation of ERK in AGS cells; format: cell-based; details: Homo sapiens; AGS cells expressing G12D, 3 hours, phospho-ERK normalized to GAPDH
Procedure, shortened: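 AGS cells (endogenous KRas G12D) were treated with compounds for 3 h in 0.5% DMSO, then fixed, permeabilized and immunostained. The phospho-ERK (Thr202/Tyr204) signal was normalized to GAPDH in-cell by infrared detection and expressed as % of DMSO control. IC50 came from a 4-parameter fit.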

KRas G12D [2] = molecular target: T1, KRas G12D (Homo sapiens, UniProt P01116, G12D); test: KRas G12D Binding Assay (TR-FRET displacement of labeled tracer); set-up: corresponding to amino acids 1:169, produced at Array BioPharma; biotin (protein is biotinylated); details: TR-FRET displacement of Cy5 labelled tracer, biotinylated GDP-loaded KRAS G12D (aa 1:169), 60 minute incubation at 22° C.
Procedure, shortened: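 Biotinylated GDP-loaded human KRAS G12D (aa 1–169) incubated with Cy5 tracer, Eu-streptavidin and compound (2% DMSO final) in 50 mM HEPES pH 7.5, 5 mM MgCl2, 0.005% Tween-20, 1 mM DTT, 60 min at 22 °C. TR-FRET ratio converted to percent of control; IC50 at 50 POC from 4-parameter logistic fit.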
Target sequence in this assay (P01116 1-169 isoform P01116-2 G12D): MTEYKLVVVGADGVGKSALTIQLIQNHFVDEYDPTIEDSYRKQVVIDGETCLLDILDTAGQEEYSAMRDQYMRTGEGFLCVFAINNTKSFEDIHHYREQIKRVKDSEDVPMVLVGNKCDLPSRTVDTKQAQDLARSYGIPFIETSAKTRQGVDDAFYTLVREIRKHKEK

KRas G12D [3] = molecular target: T1, KRas G12D; test: KRas G12D Surface Plasmon Resonance (SPR) Binding Assay; details: Biacore T200, biotinylated Avidin-tagged KRAS protein on SA chip, 20 C, 1:1 binding model
Experimental: This Example illustrates that exemplary compounds of the present invention bind to KRas G12D as measured by surface plasmon resonance (SPR). Briefly, 1 L of 1.05×HBS-Mg buffer (262.5 mM BioUltra Hepes, pH 7.5, 157.5 mM NaCl, 105 mM MgCl2, 0.525 mM TCEP, […] Brij-35) was prepared and filter sterilized using a 0.22 μm bottle top filter. Approximately 50 mL of 1.05×HBS-Mg buffer was removed and saved for future dilutions. A 50 mL aliquot of DMSO (Sigma Aldrich DMSO Lot. #SHBK2079) was added and continued to stir for 10 minutes, creating the final 1.0×HBS-Mg buffer (250 mM BioUltra Hepes pH 7.5, 150 mM NaCl, 100 mM MgCl2, 0.5 mM TCEP, 0.03% Brij-35). Biacore T200 instrument was primed using 1.0×HBS-Mg buffer before docking a GE Streptavidin (SA) chip and then primed two additional times prior to beginning the immobilization step. All immobilized protein mixtures were created using 3-5 mg/mL Biotinylated Avidin-tagged KRAS protein using the following immobilization settings: SA chip type, 1 flow cells per cycle, 720 second contact time, and 5 μL/min flow rate. Normalization of the detector was also performed during the immobilization step using the GE BiaNormalize solution. All compounds were diluted to 10 mM in 100% DMSO prior to being diluted 20× in 1.05× buffer. Another 10× dilution was created using 1.0× buffer prior to performing a series of 3× dilutions to create a compound concentration curve using the following assay settings: 20 C analysis temperature, General Settings=10 Hz data collection rate and multi-detection; Assay Steps=all set to LMW kinetics; Cycle Types=LMW kinetics (60s contact time, 120s dissociation time, 100 μL/min flow rate, extra wash after injection with 50% DMSO, flow path 1,2,3,4); Flow path detection=2-1, 4-3). Data evaluation was performed using the Biacore T200 Evaluation software and data fit to 1:1 binding model.
Target sequence in this assay (P01116 1-188 isoform P01116-2 G12D): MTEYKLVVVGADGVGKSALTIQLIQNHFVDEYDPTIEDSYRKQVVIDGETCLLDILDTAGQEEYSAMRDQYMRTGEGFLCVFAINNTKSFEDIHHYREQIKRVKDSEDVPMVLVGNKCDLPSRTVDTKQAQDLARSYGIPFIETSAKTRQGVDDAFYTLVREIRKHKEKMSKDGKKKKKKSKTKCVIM

SMILES: CN1CCC[C@H]1COc1nc2c(c(N3CC4CC(O)C(C3)N4)n1)CCN(c1cc(O)cc3ccccc13)C2 (mixture of isomers) [Example 4, 3-(7-(3-hydroxynaphthalen-1-yl)-2-(((S)-1-methylpyrrolidin-2-yl)methoxy)-5,6,7,8-tetrahydropyrido[3,4-d]pyrimidin-4-yl)-3,8-diazabicyclo[3.2.1]octan-6-ol]
- IC50 [1]: 0.994 µM
- IC50 (KRas G12D [2]): 0.0037 µM
- Kd (KRas G12D [3]): 0.0015 µM

SMILES: CO[C@@H]1C[C@@H]2CN(c3nc(OCC45CCCN4CC(F)C5)nc4c3CCN(c3cccc5cccc(Cl)c35)C4)C[C@H]1N2 (mixture of isomers) [Example 43, 7-(8-chloronaphthalen-1-yl)-2-((2-fluorotetrahydro-1H-pyrrolizin-7a(5H)-yl)methoxy)-4-((1R,5R,6R)-6-methoxy-3,8-diazabicyclo[3.2.1]octan-3-yl)-5,6,7,8-tetrahydropyrido[3,4-d]pyrimidine]
- IC50 [1]: > 16.7 µM
- IC50 (KRas G12D [2]): 0.0901 µM
- Kd (KRas G12D [3]): 0.0576 µM

SMILES: FC1CN2CCCC2(COc2nc3c(c(N4CC5CC(F)C(C4)N5)n2)CCN(c2cccc4cccc(Cl)c24)C3)C1 (racemic) [Example 44, 7-(8-chloronaphthalen-1-yl)-4-(6-fluoro-3,8-diazabicyclo[3.2.1]octan-3-yl)-2-((2-fluorotetrahydro-1H-pyrrolizin-7a(5H)-yl)methoxy)-5,6,7,8-tetrahydropyrido[3,4-d]pyrimidine]
- IC50 [1]: 9.03 µM
- IC50 (KRas G12D [2]): 0.0435 µM
- Kd (KRas G12D [3]): 0.0439 µM

SMILES: O[C@@H]1C[C@@H]2CN(c3nc(OCC45CCCN4CC(F)C5)nc4c3CCN(c3cccc5cccc(Cl)c35)C4)C[C@H]1N2 (mixture of isomers) [Example 45, (1R,5R,6R)-3-(7-(8-chloronaphthalen-1-yl)-2-((2-fluorotetrahydro-1H-pyrrolizin-7a(5H)-yl)methoxy)-5,6,7,8-tetrahydropyrido[3,4-d]pyrimidin-4-yl)-3,8-diazabicyclo[3.2.1]octan-6-ol]
- IC50 [1]: 1.36 µM
- IC50 (KRas G12D [2]): 0.0026 µM
- Kd (KRas G12D [3]): 0.0019 µM

SMILES: CN1CCC[C@H]1COc1nc2c(c(N3C[C@H]4C[C@@H](O)[C@@H](C3)N4)n1)CCN(c1cc(O)cc3ccccc13)C2 (single isomer, unassigned) [Example 54]
- IC50 [1]: 1.13 µM
- IC50 (KRas G12D [2]): 0.0411 µM
- Kd (KRas G12D [3]): 501 µM

SMILES: CC(Oc1nc2c(c(N3C[C@H]4CC[C@@H](C3)N4)n1)CCN(c1cc(O)c(Cl)c3ccccc13)C2)[C@@H]1CCCN1 (stereo partly drawn) [Example 26, 4-(4-((1R,5S)-3,8-diazabicyclo[3.2.1]octan-3-yl)-2-(1-((S)-pyrrolidin-2-yl)ethoxy)-5,8-dihydropyrido[3,4-d]pyrimidin-7(6H)-yl)-1-chloronaphthalen-2-ol]
- IC50 [1]: > 16.7 µM
- Kd (KRas G12D [3]): 0.325 µM

SMILES: CN1CCC[C@H]1COc1nc2c(c(N3C[C@H]4CC[C@@H](C3)N4)n1)CCN(c1cccc3c1CCCC3)C2 [Example 71, 4-((1R,5S)-3,8-diazabicyclo[3.2.1]octan-3-yl)-2-(((S)-1-methylpyrrolidin-2-yl)methoxy)-7-(5,6,7,8-tetrahydronaphthalen-1-yl)-5,6,7,8-tetrahydropyrido[3,4-d]pyrimidine]
- IC50 (KRas G12D [2]): 1.78 µM
- Kd (KRas G12D [3]): 4.22 µM

SMILES: CN1CCC[C@H]1COc1nc2c(c(N3C[C@H]4CC[C@@H](C3)N4)n1)CCN(c1cccc3cccc(F)c13)C2 [Example 73, 4-((1R,5S)-3,8-diazabicyclo[3.2.1]octan-3-yl)-7-(8-fluoronaphthalen-1-yl)-2-(((S)-1-methylpyrrolidin-2-yl)methoxy)-5,6,7,8-tetrahydropyrido[3,4-d]pyrimidine]
- IC50 (KRas G12D [2]): 1.1 µM
- Kd (KRas G12D [3]): 3.16 µM

SMILES: CN1CCC[C@H]1COc1nc2c(c(N3C[C@H]4CC[C@@H](C3)N4)n1)CCN(c1ccc(Br)c3cccc(Cl)c13)C2 [Example 74, 4-((1R,5S)-3,8-diazabicyclo[3.2.1]octan-3-yl)-7-(4-bromo-8-chloronaphthalen-1-yl)-2-(((S)-1-methylpyrrolidin-2-yl)methoxy)-5,6,7,8-tetrahydropyrido[3,4-d]pyrimidine]
- IC50 (KRas G12D [2]): > 10 µM
- Kd (KRas G12D [3]): 41.6 µM

SMILES: CN1CCC[C@H]1COc1nc2c(c(N3C[C@H]4CC[C@@H](C3)N4)n1)CCN(c1c(O)cccc1F)C2 [Example 77, 2-(4-((1R,5S)-3,8-diazabicyclo[3.2.1]octan-3-yl)-2-(((S)-1-methylpyrrolidin-2-yl)methoxy)-5,8-dihydropyrido[3,4-d]pyrimidin-7(6H)-yl)-3-fluorophenol]
- IC50 (KRas G12D [2]): > 10 µM
- Kd (KRas G12D [3]): 264 µM

SMILES: CN1CCC[C@H]1COc1nc2c(c(N3C[C@H]4CC[C@@H](C3)N4)n1)CCN(c1c(O)ccc3ccccc13)C2 [Example 78, 1-(4-((1R,5S)-3,8-diazabicyclo[3.2.1]octan-3-yl)-2-(((S)-1-methylpyrrolidin-2-yl)methoxy)-5,8-dihydropyrido[3,4-d]pyrimidin-7(6H)-yl)naphthalen-2-ol]
- IC50 (KRas G12D [2]): > 10 µM
- Kd (KRas G12D [3]): 51.4 µM

SMILES: CN1CCC[C@H]1COc1nc2c(c(N3C[C@H]4CC[C@@H](C3)N4)n1)CCN(c1cccc3cccc(CCCO)c13)C2 [Example 79, 3-(8-(4-((1R,5S)-3,8-diazabicyclo[3.2.1]octan-3-yl)-2-(((S)-1-methylpyrrolidin-2-yl)methoxy)-5,8-dihydropyrido[3,4-d]pyrimidin-7(6H)-yl)naphthalen-1-yl)propan-1-ol]
- IC50 (KRas G12D [2]): 0.486 µM
- Kd (KRas G12D [3]): 1.86 µM

SMILES: CN1CCC[C@H]1COc1nc2c(c(N3C[C@H]4CC[C@@H](C3)N4)n1)CCN(c1cccc3cccc(CCC#N)c13)C2 [Example 80, 3-(8-(4-((1R,5S)-3,8-diazabicyclo[3.2.1]octan-3-yl)-2-(((S)-1-methylpyrrolidin-2-yl)methoxy)-5,8-dihydropyrido[3,4-d]pyrimidin-7(6H)-yl)naphthalen-1-yl)propanenitrile]
- IC50 [1]: 11.1 µM
- Kd (KRas G12D [3]): 0.617 µM

SMILES: CC1CCCc2cccc(N3CCc4c(nc(OC[C@@H]5CCCN5C)nc4N4C[C@H]5CC[C@@H](C4)N5)C3)c21 (stereo partly drawn) [Example 82, 4-((1R,5S)-3,8-diazabicyclo[3.2.1]octan-3-yl)-7-(8-methyl-5,6,7,8-tetrahydronaphthalen-1-yl)-2-(((S)-1-methylpyrrolidin-2-yl)methoxy)-5,6,7,8-tetrahydropyrido[3,4-d]pyrimidine]
- IC50 (KRas G12D [2]): 0.061 µM
- Kd (KRas G12D [3]): 0.149 µM

SMILES: CN1CCC[C@H]1COc1nc2c(c(N3C[C@H]4CC[C@@H](C3)N4)n1)CCN(c1cccc3cccc(CCCC#N)c13)C2 [Example 83, 4-(8-(4-((1R,5S)-3,8-diazabicyclo[3.2.1]octan-3-yl)-2-(((S)-1-methylpyrrolidin-2-yl)methoxy)-5,8-dihydropyrido[3,4-d]pyrimidin-7(6H)-yl)naphthalen-1-yl)butanenitrile]
- IC50 (KRas G12D [2]): 6.57 µM
- Kd (KRas G12D [3]): 19.9 µM

SMILES: CN1CCC[C@H]1COc1nc2c(c(N3C[C@H]4CC[C@@H](C3)N4)n1)CCN(c1cccc3cccc(CCCCO)c13)C2 [Example 84, 4-(8-(4-((1R,5S)-3,8-diazabicyclo[3.2.1]octan-3-yl)-2-(((S)-1-methylpyrrolidin-2-yl)methoxy)-5,8-dihydropyrido[3,4-d]pyrimidin-7(6H)-yl)naphthalen-1-yl)butan-1-ol]
- IC50 (KRas G12D [2]): 3.69 µM
- Kd (KRas G12D [3]): 8.71 µM

SMILES: O[C@@H]1C[C@@H]2CN(c3nc(OCCC(F)(F)F)nc4c3CCN(c3cccc5cccc(Cl)c35)C4)C[C@H]1N2 [Example 86, (1R,5R,6R)-3-(7-(8-chloronaphthalen-1-yl)-2-(3,3,3-trifluoropropoxy)-5,6,7,8-tetrahydropyrido[3,4-d]pyrimidin-4-yl)-3,8-diazabicyclo[3.2.1]octan-6-ol]
- IC50 (KRas G12D [2]): 2.9 µM
- Kd (KRas G12D [3]): 33.2 µM

SMILES: Cc1ccc2cccc(N3CCc4c(nc(OC[C@@H]5CCCN5C)nc4N4C[C@H]5CC[C@@H](C4)N5)C3)c2c1 [Example 110, 4-((1R,5S)-3,8-diazabicyclo[3.2.1]octan-3-yl)-7-(7-methylnaphthalen-1-yl)-2-(((S)-1-methylpyrrolidin-2-yl)methoxy)-5,6,7,8-tetrahydropyrido[3,4-d]pyrimidine]
- IC50 (KRas G12D [2]): 3.17 µM
- Kd (KRas G12D [3]): 3.23 µM
